Assays:
Format in all cases: biochemical
[1] = system: 133 protein kinases and 7 lipid kinases; test: SelectScreen kinase profiling panel
Protocol: (§1) 133 protein kinases and 7 lipid kinases were counterscreened, with […] used at 1 μM, using the Adapta, Lantha and Z-LYTE assays (SelectScreen Kinase Profiling Service; Thermofisher—experimental details of these assays can be found here: https://www.thermofisher.com/uk/en/home/industrial/pharma-biopharma/drug-discovery-development/target-and-lead-identification-and-validation/kinasebiology/kinase-activity-assays.html. The tree representation in KinMap generated courtesy of Cell Signaling Technology, Inc. (www.cellsignal.com). mTORC1 (mTOR/RAPTOR/LST8) protein complex and ATM kinase and substrates were produced as previously described (Anandapadamanaban, M. et al. Science (New York, NY 366, 203-210 (2019); Baretic, D. et al. Sci Adv 3, e1700933 (2017). Screening of 1938 was conducted using SuperSep Phos-Tag 50 μmol/l 100×100×6.6 mm 17-well (192-18001/199-18011) gels. For ATM assays, 100 nM ATM was incubated for 30 min at 30° C. with 5 μM GST-p53 and 1 mM ATP, in the absence or presence of 200 μM 1938 in ATM Kinase Buffer (50 mM HEPES pH 7.5, 100 mM NaCl, 10% glycerol, 2 mM […], 5 mM MgCl2). […] Gels were then stained using InstantBlue™ Coomassie stain, and then quantified using BioRad Image Lab Software. […]

PI3Kα = PI3Kα (Homo sapiens, UniProt P42336); test: FRET membrane binding assay, PI3Kα; set-up: Full-length p110α was expressed in a complex with full-length p85α (for biochemistry and HDX-MS); 6xHis followed by TEV protease site (N); made in house; host or cells: Spodoptera frugiperda Sf9 (baculovirus co-infection; plasmids OP831 and OP809); conditions: compared with pY
Protocol: Membrane binding assays were performed as previously published (Burke, J. E. et al. Proc Natl Acad Sci USA 109, 15259-15264 (2012)). Briefly, liposomes were prepared with 5% (w/v) brain PtdIns(4,5)P2, 20% brain phosphatidylserine, 35% brain phosphatidylethanolamine, 15% brain phosphatidylcholine, 10% cholesterol, 5% sphingomyelin, and 10% dansyl-phosphatidylserine (Avanti Polar Lipids). PI3Kα was used at a final concentration of 0.5 μM. Protein solutions were preincubated with 10 μM pY or compounds for 10 min before addition of liposomes. Liposomes were used at a final concentration of 50 μg/ml. The reaction mixture contained 5 μl enzyme, 2 μl compound and 3 μl liposomes, all diluted in 30 mM HEPES, 50 mM NaCl, pH 7.4. The reaction was allowed to proceed for 10 min at room temperature in 384 black-polystyrene plates (Corning #3544) on an orbital shaker at 200 rpm. FRET signals were measured using PHERAStar (BMG) with a 280 nm excitation filter with 350 nm and 520 nm emission filters to measure Dansyl-PS FRET emissions, respectively. FRET signal shown as I-I0, where I is the intensity at 520 nm, and 10 is the intensity at 520 nm for the solution in the absence of protein.

ATM = target: T1, ATM (Homo sapiens, UniProt Q13315); test: ATM kinase assay (Phos-tag gel); conditions: 200 μM 1938
T1 construct: made in house
Protocol: as §1

N345K mutant of p110α = target: T2, N345K mutant of p110α (Homo sapiens, UniProt P42336, N345K); test: ADP-Glo kinase assay, oncogenic mutant N345K; conditions: compared with pY
T2 construct: Full-length p110α was expressed in a complex with full-length p85α (for biochemistry and HDX-MS); 6xHis followed by TEV protease site (N); made in house; host or cells: Spodoptera frugiperda Sf9 (plasmid OP661)
Protocol: Co-stimulation of 1938 with pY led to an additive activatory effect for G106V, but not for the N345K and E545K mutants (FIG. 1f/FIG. 22f).
Kinase reactions were performed with ADP-Glo kinase assay kit (Promega Corporation). The enzyme, substrate and compounds were diluted in reaction buffer (20 mM HEPES, 50 mM NaCl, 50 mM KCl, 3 mM MgCl2, 1 mM EGTA, 1 mM TCEP, pH 7.4). Final concentrations of PI3Kα and PI3Kδ used were 25 nM and 50 nM for PI3Kβ. Liposomes (5% brain PI(4,5)P2, 20% brain phosphatidylserine, 45% brain phosphatidylethanolamine, 15% brain phosphatidylcholine, 10% cholesterol, 5% sphingomyelin (Avanti Polar Lipids)) were used at a final concentration of 1 mg/ml. The pY sequence is ESDGG(pY)[…](pY)[…].
For characterisation of the effects of 1938 on in vitro PI3K enzymology, all reactions were performed at room temperature with 384 white-polystyrene plates (Corning #3574). The final DMSO concentration in the assay was between 0.5%-1.8%. The reaction mixture contained 2 μl PI3K enzyme, 2 μl compound and/or pY and 2 μl of liposome substrate mixed with ATP. ATP was used at a final concentration of 200 μM, unless otherwise stated. The enzyme and compounds were pre-incubated for 10 min prior to addition of substrate. […] For enzyme kinetic calculations, data was expressed as velocity (pmol of ADP generated/sec). […]

LCK = LCK (Homo sapiens, UniProt P06239); test: SelectScreen kinase profiling, LCK; conditions: 1 μM of 1938, 50 μM ATP
Protocol: as §1

Chain of PI3Kα (P42336 whole entry): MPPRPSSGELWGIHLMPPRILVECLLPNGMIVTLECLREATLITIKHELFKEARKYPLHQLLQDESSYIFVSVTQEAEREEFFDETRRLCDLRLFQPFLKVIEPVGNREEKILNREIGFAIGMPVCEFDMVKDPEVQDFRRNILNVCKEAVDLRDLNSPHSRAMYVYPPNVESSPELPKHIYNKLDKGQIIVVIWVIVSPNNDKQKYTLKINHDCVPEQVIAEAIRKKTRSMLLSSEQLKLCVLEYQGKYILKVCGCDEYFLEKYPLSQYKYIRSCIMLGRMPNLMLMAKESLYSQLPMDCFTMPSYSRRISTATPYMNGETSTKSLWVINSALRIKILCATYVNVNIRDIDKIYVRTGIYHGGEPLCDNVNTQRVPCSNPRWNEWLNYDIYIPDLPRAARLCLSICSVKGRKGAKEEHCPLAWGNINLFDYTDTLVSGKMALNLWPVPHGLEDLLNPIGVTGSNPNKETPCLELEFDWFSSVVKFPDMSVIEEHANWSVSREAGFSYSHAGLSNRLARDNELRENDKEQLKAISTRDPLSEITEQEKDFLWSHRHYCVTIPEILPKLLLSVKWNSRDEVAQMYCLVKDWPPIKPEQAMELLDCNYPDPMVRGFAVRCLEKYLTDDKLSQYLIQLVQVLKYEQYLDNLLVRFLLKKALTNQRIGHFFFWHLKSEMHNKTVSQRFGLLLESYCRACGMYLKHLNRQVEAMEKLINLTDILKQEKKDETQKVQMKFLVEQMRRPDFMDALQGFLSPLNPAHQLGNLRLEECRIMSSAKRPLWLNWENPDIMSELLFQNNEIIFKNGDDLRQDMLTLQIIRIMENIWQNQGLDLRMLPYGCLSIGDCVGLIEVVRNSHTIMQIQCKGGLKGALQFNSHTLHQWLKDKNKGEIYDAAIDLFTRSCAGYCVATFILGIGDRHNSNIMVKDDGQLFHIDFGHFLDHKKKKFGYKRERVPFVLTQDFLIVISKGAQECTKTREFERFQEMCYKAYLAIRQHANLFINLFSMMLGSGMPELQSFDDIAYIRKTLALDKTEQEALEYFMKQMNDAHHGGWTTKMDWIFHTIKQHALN
Chain of PI3Kα (P27986 whole entry partner): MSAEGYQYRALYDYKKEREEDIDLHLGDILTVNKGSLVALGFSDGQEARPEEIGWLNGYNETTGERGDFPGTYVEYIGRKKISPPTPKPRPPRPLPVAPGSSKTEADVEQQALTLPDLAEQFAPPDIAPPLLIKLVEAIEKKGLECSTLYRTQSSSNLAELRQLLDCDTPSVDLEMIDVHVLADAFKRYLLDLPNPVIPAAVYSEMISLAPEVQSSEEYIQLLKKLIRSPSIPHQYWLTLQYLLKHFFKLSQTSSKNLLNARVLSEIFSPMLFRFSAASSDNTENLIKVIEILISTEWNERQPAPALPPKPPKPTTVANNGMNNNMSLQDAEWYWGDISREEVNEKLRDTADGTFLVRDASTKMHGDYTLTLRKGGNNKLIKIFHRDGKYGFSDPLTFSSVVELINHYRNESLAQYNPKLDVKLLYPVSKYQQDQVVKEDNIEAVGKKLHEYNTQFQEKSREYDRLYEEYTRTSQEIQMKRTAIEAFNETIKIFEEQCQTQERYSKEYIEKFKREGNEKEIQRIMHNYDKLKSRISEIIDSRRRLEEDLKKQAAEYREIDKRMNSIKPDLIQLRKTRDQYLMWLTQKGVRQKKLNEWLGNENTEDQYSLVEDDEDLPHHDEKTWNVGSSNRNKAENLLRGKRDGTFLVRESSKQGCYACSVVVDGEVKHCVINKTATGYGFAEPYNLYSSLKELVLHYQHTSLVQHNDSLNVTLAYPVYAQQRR
T1 sequence (Q13315 whole entry, species assumed): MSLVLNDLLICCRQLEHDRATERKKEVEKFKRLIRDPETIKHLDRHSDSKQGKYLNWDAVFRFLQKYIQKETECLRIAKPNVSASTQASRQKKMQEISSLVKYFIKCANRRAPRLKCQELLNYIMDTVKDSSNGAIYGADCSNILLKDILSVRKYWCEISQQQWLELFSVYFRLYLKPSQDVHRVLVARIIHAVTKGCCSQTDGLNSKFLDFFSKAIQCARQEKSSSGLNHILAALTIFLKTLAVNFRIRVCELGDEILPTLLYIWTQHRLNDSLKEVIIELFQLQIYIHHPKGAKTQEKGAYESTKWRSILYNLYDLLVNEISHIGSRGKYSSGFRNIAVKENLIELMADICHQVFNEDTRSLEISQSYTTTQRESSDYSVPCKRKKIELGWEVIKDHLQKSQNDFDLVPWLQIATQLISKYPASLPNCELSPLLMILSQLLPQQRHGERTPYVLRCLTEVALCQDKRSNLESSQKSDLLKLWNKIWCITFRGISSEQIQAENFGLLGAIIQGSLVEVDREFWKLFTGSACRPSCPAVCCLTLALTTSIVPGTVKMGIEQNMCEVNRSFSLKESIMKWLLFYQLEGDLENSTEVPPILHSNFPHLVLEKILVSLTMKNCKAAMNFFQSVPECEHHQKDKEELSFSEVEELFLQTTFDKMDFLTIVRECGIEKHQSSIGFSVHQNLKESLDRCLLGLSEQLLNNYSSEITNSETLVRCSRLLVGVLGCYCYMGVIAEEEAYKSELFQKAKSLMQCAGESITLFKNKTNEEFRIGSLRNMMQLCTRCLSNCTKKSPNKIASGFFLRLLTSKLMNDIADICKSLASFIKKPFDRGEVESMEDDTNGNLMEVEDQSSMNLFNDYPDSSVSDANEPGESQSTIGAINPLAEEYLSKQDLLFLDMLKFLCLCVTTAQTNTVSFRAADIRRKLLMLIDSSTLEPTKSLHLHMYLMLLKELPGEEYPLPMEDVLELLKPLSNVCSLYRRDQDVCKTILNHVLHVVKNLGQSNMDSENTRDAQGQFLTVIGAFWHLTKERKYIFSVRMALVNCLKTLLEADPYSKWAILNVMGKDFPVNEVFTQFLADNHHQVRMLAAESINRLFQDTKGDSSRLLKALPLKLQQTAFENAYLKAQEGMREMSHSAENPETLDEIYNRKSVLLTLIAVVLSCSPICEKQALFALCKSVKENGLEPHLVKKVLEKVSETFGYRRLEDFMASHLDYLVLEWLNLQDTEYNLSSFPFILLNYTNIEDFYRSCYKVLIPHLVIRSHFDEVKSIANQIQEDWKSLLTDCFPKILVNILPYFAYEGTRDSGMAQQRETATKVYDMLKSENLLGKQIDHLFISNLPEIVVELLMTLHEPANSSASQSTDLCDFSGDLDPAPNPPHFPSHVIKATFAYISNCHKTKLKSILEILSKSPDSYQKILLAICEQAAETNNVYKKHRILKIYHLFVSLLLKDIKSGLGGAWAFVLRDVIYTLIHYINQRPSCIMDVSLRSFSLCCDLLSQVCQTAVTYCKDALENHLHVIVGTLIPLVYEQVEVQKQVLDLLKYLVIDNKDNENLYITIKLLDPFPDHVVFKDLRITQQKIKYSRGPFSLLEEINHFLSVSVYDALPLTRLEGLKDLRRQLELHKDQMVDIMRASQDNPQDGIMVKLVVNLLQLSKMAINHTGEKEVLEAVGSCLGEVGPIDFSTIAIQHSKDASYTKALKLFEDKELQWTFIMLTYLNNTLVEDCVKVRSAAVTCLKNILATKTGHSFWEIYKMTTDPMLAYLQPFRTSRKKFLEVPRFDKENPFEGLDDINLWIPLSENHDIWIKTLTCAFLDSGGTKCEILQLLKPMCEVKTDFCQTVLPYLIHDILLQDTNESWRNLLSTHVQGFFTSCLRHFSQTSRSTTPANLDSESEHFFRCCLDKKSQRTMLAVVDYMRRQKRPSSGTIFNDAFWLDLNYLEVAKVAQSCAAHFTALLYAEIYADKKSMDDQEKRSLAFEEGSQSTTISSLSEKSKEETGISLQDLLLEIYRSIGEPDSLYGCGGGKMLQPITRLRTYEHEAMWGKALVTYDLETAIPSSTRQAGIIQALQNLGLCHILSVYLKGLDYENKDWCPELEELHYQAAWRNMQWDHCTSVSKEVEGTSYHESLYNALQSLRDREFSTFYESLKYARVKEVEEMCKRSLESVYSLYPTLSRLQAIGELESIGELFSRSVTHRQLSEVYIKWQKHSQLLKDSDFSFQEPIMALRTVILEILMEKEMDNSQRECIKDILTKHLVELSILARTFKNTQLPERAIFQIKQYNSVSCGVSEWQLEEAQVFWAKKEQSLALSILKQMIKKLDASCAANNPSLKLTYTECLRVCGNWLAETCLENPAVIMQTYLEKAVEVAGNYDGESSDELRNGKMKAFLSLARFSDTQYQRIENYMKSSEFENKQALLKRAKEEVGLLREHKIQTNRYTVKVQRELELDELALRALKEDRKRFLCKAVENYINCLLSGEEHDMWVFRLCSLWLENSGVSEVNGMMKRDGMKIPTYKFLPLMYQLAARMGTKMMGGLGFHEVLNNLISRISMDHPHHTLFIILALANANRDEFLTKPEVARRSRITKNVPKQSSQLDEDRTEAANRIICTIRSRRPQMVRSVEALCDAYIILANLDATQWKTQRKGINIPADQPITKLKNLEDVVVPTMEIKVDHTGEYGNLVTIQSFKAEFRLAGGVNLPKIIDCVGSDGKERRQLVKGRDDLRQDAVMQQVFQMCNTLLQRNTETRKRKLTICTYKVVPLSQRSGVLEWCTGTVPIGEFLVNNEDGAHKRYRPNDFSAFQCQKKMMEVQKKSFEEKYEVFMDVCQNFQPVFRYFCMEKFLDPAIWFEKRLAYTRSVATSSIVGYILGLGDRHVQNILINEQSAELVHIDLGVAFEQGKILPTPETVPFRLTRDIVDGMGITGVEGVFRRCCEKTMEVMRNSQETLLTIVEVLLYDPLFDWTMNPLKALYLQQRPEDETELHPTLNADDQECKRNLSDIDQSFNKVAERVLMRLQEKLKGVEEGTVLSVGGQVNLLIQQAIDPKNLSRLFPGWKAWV
T2 sequence (P42336 whole entry N345K): as the sequence (P42336 whole entry) above, with N345K counted along it
T2 sequence (P27986 whole entry partner): as the sequence (P27986 whole entry partner) above

## CCN1CCN(c2ccc(Nc3cc(Nc4cccc5c4N(C(C)=O)CC5)ccn3)cc2)CC1 [Example 1938]
[1]; 1 μM of 1938
  number of protein kinases inhibited between 25-50%: 13
[1]; PI3Kβ, PI3Kγ, PI3Kδ, PI3K-C2α, Vps34, PI4Kβ, mTOR, DNA-PK, 1 μM
  activity of other PI3K isoforms and PI3K-related kinases in the panel: did not affect
PI3Kα
  binding of PI3Kα to lipid membranes, maximum level: about half of that induced by pY
ATM
  activity of ATM: did not affect
N345K mutant of p110α
  activation of N345K mutant: levels comparable with stimulation with pY
LCK
  inhibition of LCK: 58%

From patent US20250263404A1, “AMINOPYRIDINES AS ACTIVATORS OF PI3 KINASE” (UCL Business Ltd, priority 2021, published 2025)
